Patent US7473790B2 (Pfizer Inc., priority 2003, dated 2009)

Target: T1, HCV polymerase (Hepatitis C virus genotype 1b, UniProt P26663)
T1 construct: 2.5 pmoles (0.15 μg) HCV polymerase protein in a final volume of 75 μL
Experiment: HCV polymerase primer/template-directed transcription assay (32P-GTP incorporation, filter binding)
Format: biochemical
Details: for IC50: recombinant HCV polymerase, 30 minutes at 30° C., concentration giving 50% inhibition of polymerase-directed transcription, read-out: IC50; for inhibition at 50 µM: @ 50 uM compound, given where IC50 was impractical to calculate, read-out: percent inhibition
Outline: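 IC50s come from triplicate cpm, refit with an enzyme-concentration (30 nM) correction when under 200 nM. Reactions ran 30 min at 30° C in Tris pH 7.2 with MgCl2, 1 μM GTP spiked with α-32P-GTP, biotin-dG12 primer and poly(rC)300 template, with 1% DMSO. Incorporated label was collected on DE filtermats and counted.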

T1 sequence (P26663 2420-3010): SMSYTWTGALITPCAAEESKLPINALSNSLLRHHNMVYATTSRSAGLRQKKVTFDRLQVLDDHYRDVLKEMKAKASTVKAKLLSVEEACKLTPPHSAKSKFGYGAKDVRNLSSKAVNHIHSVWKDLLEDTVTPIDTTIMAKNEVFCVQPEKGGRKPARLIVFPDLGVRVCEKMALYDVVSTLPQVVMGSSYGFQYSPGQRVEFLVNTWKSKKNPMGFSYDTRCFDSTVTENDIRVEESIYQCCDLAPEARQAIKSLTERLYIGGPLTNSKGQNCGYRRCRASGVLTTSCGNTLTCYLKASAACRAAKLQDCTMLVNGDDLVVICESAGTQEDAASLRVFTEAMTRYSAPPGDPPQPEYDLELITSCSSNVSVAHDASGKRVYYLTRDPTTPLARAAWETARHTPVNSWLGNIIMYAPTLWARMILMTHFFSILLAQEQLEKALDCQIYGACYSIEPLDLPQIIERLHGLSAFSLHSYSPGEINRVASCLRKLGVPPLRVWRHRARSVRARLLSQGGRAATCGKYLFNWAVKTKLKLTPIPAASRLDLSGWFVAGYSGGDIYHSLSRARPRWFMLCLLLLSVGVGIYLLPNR

Compound | IC50 [µM] | inhibition at 50 µM [%]
COc1ccc(CCC2(C3CCCC3)CC(O)=C(Sc3nc4ccccc4n3-c3ccccc3)C(=O)O2)cc1Cl (stereo not drawn) [C(48), 6-[2-(3-chloro-4-methoxyphenyl)ethyl]-6-cyclopentyl-4-hydroxy-3-[(1-phenyl-1H-benzimidazol-2-yl)thio]-5,6-dihydro-2H-pyran-2-one] | 0.14 | 
CC(C)(O)c1ccc(CCC2(C3CCCC3)CC(O)=C(Cc3nc4ncc(Cl)cn4n3)C(=O)O2)cc1F (stereo not drawn) [A(214), 3-[(6-chloro[1,2,4]triazolo[1,5-a]pyrimidin-2-yl)methyl]-6-cyclopentyl-6-{2-[3-fluoro-4-(1-hydroxy-1-methylethyl)phenyl]ethyl}-4-hydroxy-5,6-dihydro-2H-pyran-2-one] | 0.038 | 
COc1ccc(CCC2(C3CCCC3)CC(O)=C(Cc3nc4ccccc4c(=O)[nH]3)C(=O)O2)cc1Cl (stereo not drawn) [B(55), 2-({6-[2-(3-Chloro-4-methoxyphenyl)ethyl]-6-cyclopentyl-4-hydroxy-2-oxo-5,6-dihydro-2H-pyran-3-yl}methyl)quinazolin-4(3H)-one] | 0.15 | 
Cc1cc(C)n2nc(SC3=C(O)CC(CCc4ccc(-c5c(C)noc5C)cc4)(C4CCCC4)OC3=O)nc2n1 (stereo not drawn) [C(13), 6-Cyclopentyl-6-{2-[4-(3,5-dimethyl-isoxazol-4-yl)-phenyl]-ethyl}-3-(5,7-dimethyl-[1,2,4]triazolo[1,5-a]pyrimidin-2-ylsulfanyl)-4-hydroxy-5,6-dihydro-pyran-2-one] | 0.016 | 
N#CC1(c2ccc(CCC3(C4CCCC4)CC(O)=C(Cc4nc5ncc(Cl)cn5n4)C(=O)O3)cc2Cl)CC1 (stereo not drawn) [B(126), 1-(2-Chloro-4-{2-[5-(6-chloro-[1,2,4]triazolo[1,5-a]pyrimidin-2-ylmethyl)-2-cyclopentyl-4-hydroxy-6-oxo-3,6-dihydro-2H-pyran-2-yl]-ethyl}-phenyl)-cyclopropanecarbonitrile] | 0.023 | 
Cc1cc(C)n2nc(CC3=C(O)CC(CCC(=O)NC4CCN(C(=O)OC(C)(C)C)CC4)(C4CCCC4)OC3=O)nc2n1 (stereo not drawn) [B(109), 4-{3-[2-Cyclopentyl-5-(5,7-dimethyl-[1,2,4]triazolo[1,5-a]pyrimidin-2-ylmethyl)-4-hydroxy-6-oxo-3,6-dihydro-2H-pyran-2-yl]-propionylamino}-piperidine-1-carboxylic acid tert-butyl ester] |  | 23
COc1ccc(CCC2(C3CCCC3)CC(O)=C(Sc3nc4c(O)cccc4[nH]3)C(=O)O2)cc1Cl (stereo not drawn) [C(58), 6-[2-(3-chloro-4-methoxyphenyl)ethyl]-6-cyclopentyl-4-hydroxy-3-[(4-hydroxy-1H-benzimidazol-2-yl)thio]-5,6-dihydro-2H-pyran-2-one] | 0.14 | 
CC(C)Oc1ccc(CCC2(C3CCCC3)CC(O)=C(Sc3nnc(-c4ccccc4)[nH]3)C(=O)O2)cc1F (stereo not drawn) [C(24), 6-Cyclopentyl-6-[2-(3-fluoro-4-isopropoxy-phenyl)-ethyl]-4-hydroxy-3-(5-phenyl-4H-[1,2,4]triazol-3-ylsulfanyl)-5,6-dihydro-pyran-2-one] | 0.051 | 
Cc1cnc2nc(CC3=C(O)CC(COc4ccc(C(C)(C)C#N)c(F)c4)(C4CCCC4)OC3=O)nn2c1 (stereo not drawn) [C(111), 2-{4-[2-Cyclopentyl-4-hydroxy-5-(6-methyl-[1,2,4]triazolo[1,5-a]pyrimidin-2-ylmethyl)-6-oxo-3,6-dihydro-2H-pyran-2-ylmethoxy]-2-fluoro-phenyl}-2-methyl-propionitrile] | 0.395 | 
COc1cc(OC)c(CCC2(C3CCCC3)CC(O)=C(Cc3cn4cccnc4n3)C(=O)O2)cc1Cl (stereo not drawn) [B(90), 6-[2-(5-chloro-2,4-dimethoxyphenyl)ethyl]-6-cyclopentyl-4-hydroxy-3-(imidazo[1,2-a]pyrimidin-2-ylmethyl)-5,6-dihydro-2H-pyran-2-one] | 0.006 | 
Cc1cc(C)n2nc(CC3=C(O)CC(COc4ccc(C(C)(C)C#N)c(F)c4)(C4CCCC4)OC3=O)nc2n1 (stereo not drawn) [C(112), 2-{4-[2-Cyclopentyl-5-(5,7-dimethyl-[1,2,4]triazolo[1,5-a]pyrimidin-2-ylmethyl)-4-hydroxy-6-oxo-3,6-dihydro-2H-pyran-2-ylmethoxy]-2-fluoro-phenyl}-2-methyl-propionitrile] | 0.064 | 
C=CCC1C(=O)CC(CCc2ccc(OC)c(Cl)c2)(C2CCCC2)OC1=O (stereo not drawn) [B(79), 3-allyl-6-[2-(3-chloro-4-methoxyphenyl)ethyl]-6-cyclopentyldihydro-2H-pyran-2,4(3H)-dione] | 2.4 | 
CCc1cc(CCC2(C3CCCC3)CC(=O)CC(=O)O2)c2c(c1O)CCO2 (stereo not drawn) [A(181), 6-Cyclopentyl-6-[2-(5-ethyl-4-hydroxy-2,3-dihydro-benzofuran-7-yl)-ethyl]-dihydro-pyran-2,4-dione] | 0.6 | 
CCC(CC)Oc1ccc(CCC2(C3CCCC3)CC(=O)CC(=O)O2)cc1Cl (stereo not drawn) [A(83), 6-{2-[3-Chloro-4-(1-ethyl-propoxy)-phenyl]-ethyl}-6-cyclopentyl-dihydro-pyran-2,4-dione] | 5.4 | 
COc1ccc(CCC2(C3CCCC3)CC(O)=C(Sc3nnc(-c4ccncc4)[nH]3)C(=O)O2)cc1Cl (stereo not drawn) [C(50), 6-[2-(3-chloro-4-methoxyphenyl)ethyl]-6-cyclopentyl-4-hydroxy-3-[(5-pyridin-4-yl-4H-1,2,4-triazol-3-yl)thio]-5,6-dihydro-2H-pyran-2-one] | 0.01 | 
CC(C)(C#N)c1ccc(CCC2(C3CCCC3)CC(O)=C(Cc3nc4ncc(Cl)cn4n3)C(=O)O2)cc1F (single isomer, unassigned; (+)) [A(248), (+)-2-(4-{2-[5-(6-Chloro-[1,2,4]triazolo[1,5-a]pyrimidin-2-ylmethyl)-2-cyclopentyl-4,6-dioxo-tetrahydro-pyran-2-yl]-ethyl}-2-fluoro-phenyl)-2-methyl-propionitrile] | 0.016 | 
O=C1CC(=O)OC(CCc2ccc(O)c(CC(F)(F)F)c2)(C2CCCC2)C1 (stereo not drawn) [A(228), 6-cyclopentyl-6-{2-[4-hydroxy-3-(2,2,2-trifluoroethyl)phenyl]ethyl}dihydro-2H-pyran-2,4(3H)-dione] | 0.47 | 
COc1cc(OC)c(CCC2(C3CCCC3)CC(O)=C(Sc3ncc(-c4cccnc4)[nH]3)C(=O)O2)cc1Cl (stereo not drawn) [C(77), 6-[2-(5-chloro-2,4-dimethoxyphenyl)ethyl]-6-6cyclopentyl-4-hydroxy-3-[(5-pyridin-3-yl-1H-imidazol-2-yl)thio]-5,6-2H-pyran-2-one] | 0.062 | 
Cc1cnc2nc(CC3=C(O)CC(CCc4ccc(C(C)C#N)c(F)c4)(C4CCCC4)OC3=O)nn2c1 (stereo not drawn) [A(240), 2-(4-{2-[2-Cyclopentyl-4-hydroxy-5-(6-methyl-[1,2,4]triazolo[1,5-a]pyrimidin-2-ylmethyl)-6-oxo-3,6-dihydro-2H-pyran-2-yl]-ethyl}-2-fluoro-phenyl)-propionitrile] | 0.009 | 
Cn1ccc2cc(CC3=C(O)CC(CCc4ccc(C(C)(C)C#N)c(F)c4)(C4CCCC4)OC3=O)ccc21 (stereo not drawn) [B(92), 2-[4-(2-{2-cyclopentyl-4-hydroxy-5-[(1-methyl-1H-indol-5-yl)methyl]-6-oxo-3,6-dihydro-2H-pyran-2-yl}ethyl)-2-fluorophenyl]-2-methylpropanenitrile] | 0.008 | 
COc1ccc(CCC2(C3CCCC3)CC(=O)CC(=O)O2)c(C(C)=O)c1 (stereo not drawn) [A(61), 6-[2-(2-acetyl-4-methoxyphenyl)ethyl]-6-cyclopentyldihydro-2H-pyran-2,4(3H)-dione] |  | 40
Cc1cc(C)n2nc(CC3=C(O)CC(CCc4ccc(C5(C#N)CC5)c(Cl)c4)(C4CCCC4)OC3=O)nc2n1 (racemic) [A(201), 1-(2-Chloro-4-{2-[2-cyclopentyl-5-(5,7-dimethyl-[1,2,4]triazolo[1,5a]pyrimidin 2-ylmethyl)-4-hydroxy-6-oxo-3,6-dihydro-2H-pyran-2-yl]-ethyl}-phenyl)-cyclopropanecarbonitrile] | 0.012 | 
COc1ccc(CCC2(C3CCCC3)CC(O)=C(Sc3nncn3C(C)(C)C)C(=O)O2)cc1Cl (stereo not drawn) [C(34), 3-[(4-tert-butyl-4H-1,2,4-triazol-3-yl)thio]-6-[2-(3-chloro-4-methoxyphenyl)ethyl]-6-cyclopentyl-4-hydroxy-5,6-dihydro-2H-pyran-2-one] | 0.053 | 
CN(c1ccc(CCC2(C3CCCC3)CC(=O)CC(=O)O2)cc1F)S(C)(=O)=O (stereo not drawn) [A(132), 6-cyclopentyl-6-[2-(3-fluoro-4-{methyl[methyl(dimethylene)-6-sulfanyl]amino}phenyl)ethyl]dihydro-2H-pyran-2,4(3H)-dione] | 13 | 
CCc1cc(CCC2(C3CCCC3)CC(=O)CC(=O)O2)cc(Cl)c1O (stereo not drawn) [B(101), 6-[2-(3-Chloro-5-ethyl-4-hydroxy-phenyl)-ethyl]-6-cyclopentyl-dihydro-pyran-2,4-dione] | 0.61 | 
COc1cc(OC)c(CCC2(C3CCCC3)CC(O)=C(Sc3nnc(CN(C)C)n3C)C(=O)O2)cc1Cl (stereo not drawn) [C(83)] | 0.04 | 
CCc1cc(CCC2(C3CCCC3)CC(O)=C(Cc3nc4ncc(Cl)cn4n3)C(=O)O2)ccc1O (racemic) [A(272), 3-(6-Chloro-[1,2,4]triazolo[1,5-a]pyrimidin-2-ylmethyl)-6-cyclopentyl-6-[2-(3-ethyl-4-hydroxy-phenyl)-ethyl]-4-hydroxy-5,6-dihydro-pyran-2-one] | 0.006 | 
COc1ccc(CCC2(C3CCCC3)CC(O)=C(Sc3nnc(O)n3C(C)C)C(=O)O2)cc1Cl (stereo not drawn) [C(06), 6-[2-(3-Chloro-4-methoxy-phenyl)-ethyl]-6-cyclopentyl-4-hydroxy-3-(5-hydroxy-4-isopropyl-4H-[1,2,4]triazol-3-ylsulfanyl)-5,6-dihydro-pyran-2-one] | 0.25 | 
CC(C)(C)C(=O)c1ccc(CCC2(C3CCCC3)CC(=O)CC(=O)O2)cc1 (stereo not drawn) [A(37), 6-Cyclopentyl-6-{2-[4-(2,2-dimethyl-propionyl)-phenyl]-ethyl}-dihydro-pyran-2,4-dione] | 8.7 | 
COc1ccc(CCC2(C3CCCC3)CC(O)=C(Sc3ncccc3C#N)C(=O)O2)cc1Cl (stereo not drawn) [C(56), 2-({6-[2-(3-chloro-4-methoxyphenyl)ethyl]-6-cyclopentyl-4-hydroxy-2-oxo-5,6-dihydro-2H-pyran-3-yl}thio)nicotinonitrile] | 1.3 | 
